The text below walks through data of patent US20250295606A1, “BIOSOLUBLE POLYMER OR PARTICLE FOR DELIVERY OF AN ACTIVE AGENT AND A METHOD FOR THE PRODUCTION” (Tijani Holding B.V., priority 2021, published 2025).

In one data set the test system is pig. An excerpt: For sublingual (s.l.) treatment it is necessary to anesthetize the animals as to allow the application of the insulin complexes onto the sublingual mucosa, but long-term anesthesia is undesirable as it may affect insulin/glucose metabolism.
Data set [1] can be described thus: Plasma insulin level in diabetic Göttingen minipigs. In kind it is in vivo. The conditions noted are these: diabetic Göttingen minipig, subcutaneous injection. From the text:
The purpose of this chronic, large animal in vivo study was to test the effective penetration of insulin containing particles through the sublingual mucosa, compare the effect with the subcutaneously applied human recombinant, measure the blood glucose changes and analyses the plasma insulin levels. Domestic pigs were also included in the study to compare the glucose lowering effect of insulin-loaded particles in the Göttingen minipigs and domestic pigs. The test compounds were applied s.l. and s.c. to the pigs being under the anesthetic propofol (Amnesia).
On the first day of acclimatization a central venous catheter was installed (Certofix®Mono B-Braun V430) for each domestic pig and Göttingen minipig. The pigs were fasted overnight before the day of operation, but supplied with water ad libitum. The animals were pre-anesthetized intramuscularly with Calypsol/Xilazine (2/1.8 mL, based on body weight) injections in the stalls to avoid stress, and were transported to the operating room. The anesthesia was maintained using isoflurane inhalation narcosis (2-2.5%) with oxygen. […]. The venous catheters were introduced by aseptic technique into the left external jugular vein. The end of the catheter was pulled subcutaneously to the back part of the head between the ears, and fixed by sutures, in two layers. […]

The subject of data set [2] is diabetic Göttingen minipigs. In words: Sublingual SLIM particles vs s.c. insulin, blood glucose in diabetic Göttingen minipigs. The class given is in vivo. The conditions noted are these: Minipig 2, different days; SLIM-AF5 15 IU sublingual, RHI 10 IU subcutaneous; 2H30, after first 10 min. An excerpt: Testing the sublingual application of SLIM particles loaded with insulin in normoglycemic and STZ diabetic […] in a chronic in vivo study.
The purpose of this chronic, large animal in vivo study was to test the effective penetration of insulin containing particles through the sublingual mucosa, compare the effect with the subcutaneously applied human recombinant, measure the blood glucose changes and analyses the plasma insulin levels. Domestic pigs were also included in the study to compare the glucose lowering effect of insulin-loaded particles in the Göttingen minipigs and domestic pigs. […]
In this study, we first recorded the effect of s.c. application of human recombinant insulin as reference compounds and s.c. and s.l. applications of micro-compounds. […] The glucose levels of the pigs were followed and monitored for at least 3 days. […]
Corresponding to Example 20, the efficacy of SLIM particles was compared to subcutaneous injection of commercial recombinant human insulin in the same diabetic Göttingen minipig (Minipig 2) on different days. First day the animal received SLIM-AF5 (AF, 15 IU) particles sublingually and the second day was administered Recombinant Human Insulin (RHI, 10 IU) subcutaneously and the BG levels were monitored for 2H30 and compared (FIG. 22).

With `CC(C)c1cccc(C(C)C)c1O` [Propofol], in the data set with pig (5 mg/kg, 20 mg/mL i.v.), the “time until the jaw was relaxed” value stood at 60 s and the “time until the pig was laying down” value is 30 s. In addition, the “blood glucose measurements under anesthesia” value in the data set with pig (20 minutes before, then 5, 10, 15 and 30 minutes after anesthesia) is “in the normal range”.
“recombinant human insulin: commercial recombinant human insulin, subcutaneous reference”: the “maxima of plasma insulin” value in data set [1] (2 IU) is recorded as “only one insulin maximum in plasma”; in data set [1] (10 IU), “only one maximum peak of plasma insulin”. Further, the BG level course result in data set [2] is “continue to decline linearly with the time but with a slightly different speed and slop”.
